Test results taken from patent publication US8324390B2, “Tetrazole-substituted anthranilamides as pesticides” (Bayer CropScience AG, priority 2008, dated 2012).
Like-named read-outs stand apart in the source and are kept apart here.

Tests used:
[1] = tested on: larvae of the mustard beetle (Phaedon cochleariae); test: Phaedon test (PHAECO spray treatment); conditions: Phaedon cochleariae, in Brassica rapa, foliar, read-out: effect in % (beetle larvae killed)
[2] = log P determination by HPLC (EEC Directive 79/831 Annex V.A8); type: physicochemical
Description: The measurements were carried out using an Agilent 1100 LC system with a 50*4.6 Zorbax Eclipse C18 1.8 μm column (oven temperature 55° C., flow rate 2.0 ml/min).
The following mobile phases were used:
Mobile phase A: acetonitrile+1000 μl of formic acid/l
Mobile phase B: Millipore water+900 μl of formic acid/l

[3] = tested on: caterpillars of the armyworm (Spodoptera frugiperda); test: Spodoptera frugiperda test (SPODFR spray treatment); type: in vivo; conditions: Spodoptera frugiperda, foliar, read-out: effect in % (caterpillars killed)
Text: Solvent: 78.0 parts by weight of acetone

[4] = reversed-phase HPLC, Zorbax Eclipse C18 column, by HPLC according to EEC Directive 79/831 Annex V.A8, read-out: log P
[5] = application rate 100 g/ha, maize leaf discs
[6] = reversed-phase HPLC, Zorbax Eclipse C18 column, determined by HPLC according to EEC Directive 79/831 Annex V.A8, read-out: log P
[7] = by HPLC according to EEC Directive 79/831 Annex V.A8, read-out: log P

| chromatographic logP [2, 4] | chromatographic logP [2, 6] | SMILES | pest or weed control at 100 g/ha [1] [%] | chromatographic logP ([2]; log P) | pest or weed control at 100 g/ha ([3]; in Zea mays) [%] | pest or weed control at 100 g/ha [3, 5] [%] | chromatographic logP [2, 7] |
| --- | --- | --- | --- | --- | --- | --- | --- |
| – | – | Cc1cc(C#N)cc(C(=O)NC(C)C)c1NC(=O)c1cc(Cn2nnc(C(F)(F)C(F)(F)F)n2)nn1-c1ncccc1Cl [Example 135] | ≥ 80 | 3.55 | ≥ 80 | – | – |
| – | – | Cc1cc(I)cc(C(=O)NC(C)C)c1NC(=O)c1cc(Cn2nnc(C(F)(C(F)(F)F)C(F)(F)F)n2)nn1-c1ncccc1Cl [Example 381] | ≥ 80 | 4.44 | ≥ 80 | – | – |
| – | – | CNC(=O)c1cc(I)cc(C)c1NC(=O)c1cc(Cn2nnc(C(F)(F)C(F)(F)F)n2)nn1-c1ncccc1Cl [Example 140] | ≥ 80 | 3.64 | ≥ 80 | – | – |
| – | – | Cc1cc(Cl)cc(C(=O)NC2CC2)c1NC(=O)c1cc(Cn2nnc(C(F)(F)F)n2)nn1-c1ncccc1Cl [Example 25] | ≥ 80 | 3.23 | ≥ 80 | – | – |
| – | – | CCC(C)NC(=O)c1cc(Cl)cc(C)c1NC(=O)c1cc(Cn2nnc(C(F)(F)F)n2)nn1-c1ncccc1Cl (stereo not drawn) [Example 36] | ≥ 80 | 3.74 | ≥ 80 | – | – |
| 3.07 | – | Cc1cc(C#N)cc(C(=O)NC2CC2)c1NC(=O)c1cc(Cn2nnc(C(F)(F)F)n2)nn1-c1ncccc1C(F)(F)F [Example 233] | ≥ 80 | – | – | ≥ 80 | – |
| – | – | Cc1cc(Cl)cc(C(=O)NCC2CC2)c1NC(=O)c1cc(Cn2nnc(C(F)(F)C(F)(F)F)n2)nn1-c1ncccc1Cl [Example 131] | ≥ 80 | 3.93 | ≥ 80 | – | – |
| – | – | Cc1cc(C#N)cc(C(=O)NCC2CC2(Cl)Cl)c1NC(=O)c1cc(Cn2nnc(C(F)(F)F)n2)nn1-c1ncccc1Cl (stereo not drawn) [Example 88] | ≥ 80 | 3.5 | ≥ 80 | – | – |
| 3.9 | – | Cc1cc(I)cc(C(=O)NC(C)C)c1NC(=O)c1cc(Cn2nnc(C(F)(F)F)n2)nn1-c1ncccc1C(F)(F)F [Example 243] | ≥ 80 | – | – | ≥ 80 | – |
| – | – | Cc1cc(C)c(NC(=O)c2cc(Cn3nnc(C(F)(F)F)n3)nn2-c2ncccc2Cl)c(C(=O)NC2CC2)c1 [Example 119] | ≥ 80 | 3.04 | ≥ 80 | – | – |
| 4.51 | – | Cc1cc(I)cc(C(=O)NCC2CC2)c1NC(=O)c1cc(Cn2nnc(C(F)(C(F)(F)F)C(F)(F)F)n2)nn1-c1ncccc1Cl [Example 383] | ≥ 80 | – | – | ≥ 80 | – |
| 4.1 | – | Cc1cc(C#N)cc(C(=O)NC(C)(C)C)c1NC(=O)c1cc(Cn2nnc(C(F)(C(F)(F)F)C(F)(F)F)n2)nn1-c1ncccc1Cl [Example 371] | ≥ 80 | – | – | ≥ 80 | – |
| 4.07 | – | Cc1cc(C#N)cc(C(=O)NC(C)C2CC2)c1NC(=O)c1cc(Cn2nnc(C(F)(C(F)(F)F)C(F)(F)F)n2)nn1-c1ncccc1Cl (stereo not drawn) [Example 368] | ≥ 80 | – | – | ≥ 80 | – |
| – | – | Cc1cc(F)cc(C(=O)NCC2CC2)c1NC(=O)c1cc(Cn2nnc(C(F)(F)F)n2)nn1-c1ncccc1Cl [Example 48] | ≥ 80 | 3.18 | ≥ 80 | – | – |
| – | – | Cc1cc(Cl)cc(C(=O)NC(C)C)c1NC(=O)c1cc(Cn2nnc(C(F)F)n2)nn1-c1ncccc1Cl [Example 231] | ≥ 80 | 2.95 | ≥ 80 | – | – |
| 4.47 | – | CC(C)(C)NC(=O)c1cc(Cl)cc(Cl)c1NC(=O)c1cc(Cn2nnc(C(F)(C(F)(F)F)C(F)(F)F)n2)nn1-c1ncccc1Cl [Example 390] | ≥ 80 | – | – | ≥ 80 | – |
| – | 3.35 | Cc1cc(C#N)cc(C(=O)NC(C)(C)C)c1NC(=O)c1cc(Cn2nnnc2C(F)(F)F)nn1-c1ccccc1 [Example 520] | ≥ 80 | – | – | ≥ 80 | – |
| 3.28 | – | Cc1cc(Cl)cc(C(=O)NCC#N)c1NC(=O)c1cc(Cn2nnc(C(F)(F)F)n2)nn1-c1ncccc1C(F)(F)F [Example 252] | ≥ 80 | – | – | ≥ 80 | – |
| – | – | CSC[C@H](C)NC(=O)c1cc(C#N)cc(C)c1NC(=O)c1cc(Cn2nnc(C(F)(F)F)n2)nn1-c1ncccc1Cl [Example 14] | ≥ 80 | 3.28 | ≥ 80 | – | – |
| – | – | Cc1cc(Cl)cc(C(=O)NC2CCC2)c1NC(=O)c1cc(Cn2nnc(C(F)(F)C(F)(F)F)n2)nn1-c1ncccc1Cl [Example 132] | ≥ 80 | 4.03 | ≥ 80 | – | – |

| chromatographic logP [2, 4] | chromatographic logP [2, 6] | SMILES | pest or weed control at 100 g/ha [1] [%] | chromatographic logP ([2]; log P) | pest or weed control at 100 g/ha ([3]; in Zea mays) [%] | pest or weed control at 100 g/ha [3, 5] [%] | chromatographic logP [2, 7] |
| --- | --- | --- | --- | --- | --- | --- | --- |
| – | – | Cc1cc(Cl)cc(C(=O)NC2CC2)c1NC(=O)c1cc(Cn2nnc(C(F)(F)C(F)(F)C(F)(F)F)n2)nn1-c1ncccc1Cl [Example 4] | ≥ 80 | – | ≥ 80 | – | 3.96 |
| – | – | CNC(=O)c1cc(Cl)cc(C)c1NC(=O)c1cc(Cn2nnc(C(F)(F)C(F)(F)F)n2)nn1-c1ncccc1Cl [Example 125] | ≥ 80 | 3.39 | ≥ 80 | – | – |
| – | – | CCNC(=O)c1cc(Cl)cc(Cl)c1NC(=O)c1cc(Cn2nnc(C(F)(F)F)n2)nn1-c1ncccc1Cl [Example 58] | ≥ 80 | 3.17 | ≥ 80 | – | – |
| 3.04 | – | Cc1cc(Br)cc(C(N)=O)c1NC(=O)c1cc(Cn2nnc(C(F)(F)F)n2)nn1-c1ncccc1C(F)(F)F [Example 251] | ≥ 80 | – | – | ≥ 80 | – |
| – | – | CNC(=O)c1cc(Cl)cc(C)c1NC(=O)c1cc(Cn2nnnc2C(F)(F)C(F)(F)F)nn1-c1ncccc1Cl [Example 198] | ≥ 80 | 3.1 | ≥ 80 | – | – |
| – | – | Cc1cc(I)cc(C(=O)NCC2CC2)c1NC(=O)c1cc(Cn2nnc(C(F)F)n2)nn1-c1ncccc1Cl [Example 279] | ≥ 80 | 3.27 | ≥ 80 | – | – |
| 4.43 | – | Cc1cc(Cl)cc(C(=O)NC(C)(C)C)c1NC(=O)c1cc(Cn2nnc(C(F)(F)F)n2)nn1-c1ccccc1Br [Example 348] | ≥ 80 | – | – | ≥ 80 | – |
| – | – | CC(C)NC(=O)c1cc(Cl)cc(Cl)c1NC(=O)c1cc(Cn2nnc(C(F)(C(F)(F)F)C(F)(F)F)n2)nn1-c1ncccc1Cl [Example 389] | ≥ 80 | 4.12 | ≥ 80 | – | – |
| 2.81 | – | Cc1cc(C#N)cc(C(=O)NCC#N)c1NC(=O)c1cc(Cn2nnc(C(F)(F)F)n2)nn1-c1ncccc1C(F)(F)F [Example 253] | ≥ 80 | – | – | ≥ 80 | – |
| – | 2.91 | CNC(=O)c1cc(C#N)cc(C)c1NC(=O)c1cc(Cn2nnnc2C(F)(F)F)nn1-c1ccccc1C(F)(F)F [Example 490] | ≥ 80 | – | – | ≥ 80 | – |
| – | – | Cc1cc(F)cc(C(=O)NC(C)C)c1NC(=O)c1cc(Cn2nnc(C(F)(F)F)n2)nn1-c1ncccc1Cl [Example 40] | ≥ 80 | 3.11 | ≥ 80 | – | – |
| – | – | Cc1cc(Cl)cc(C(N)=O)c1NC(=O)c1cc(Cn2nnc(C(F)(F)C(F)(F)F)n2)nn1-c1ncccc1Cl [Example 130] | ≥ 80 | 3.15 | ≥ 80 | – | – |
| – | – | O=C(NC1CCC1)c1cc(Cl)cc(Cl)c1NC(=O)c1cc(Cn2nnc(C(F)(F)C(F)(F)F)n2)nn1-c1ncccc1Cl [Example 157] | ≥ 80 | 3.92 | ≥ 80 | – | – |
| – | – | CCNC(=O)c1cc(I)cc(C)c1NC(=O)c1cc(Cn2nnc(C(F)(F)F)n2)nn1-c1ncccc1Cl [Example 66] | ≥ 80 | 3.47 | ≥ 80 | – | – |
| – | – | CNC(=O)c1cc(Cl)cc(Cl)c1NC(=O)c1cc(Cn2nnc(C(F)(C(F)(F)F)C(F)(F)F)n2)nn1-c1ncccc1Cl [Example 386] | ≥ 80 | 3.65 | ≥ 80 | – | – |
| – | – | Cc1cc(C#N)cc(C(=O)NC(C)(C)C)c1NC(=O)c1cc(Cn2nnc(C(C)(C)C)n2)nn1-c1ncccc1Cl [Example 100] | ≥ 80 | 3.44 | ≥ 80 | – | – |
| 3.57 | – | Cc1cc(C#N)cc(C(=O)NCC(F)F)c1NC(=O)c1cc(Cn2nnc(C(F)(C(F)(F)F)C(F)(F)F)n2)nn1-c1ncccc1Cl [Example 375] | ≥ 80 | – | – | ≥ 80 | – |
| – | – | Cc1cc(C#N)cc(C(=O)NC(C#N)C2CC2)c1NC(=O)c1cc(Cn2nnc(C(F)(F)F)n2)nn1-c1ncccc1Cl (stereo not drawn) [Example 321] | ≥ 80 | 3.05 | ≥ 80 | – | – |
| – | – | Cc1cc(C#N)cc(C(=O)NC(C)(C)C)c1NC(=O)c1cc(Cn2nnc(C(F)(F)C(F)(F)C(F)(F)F)n2)nn1-c1ncccc1Cl [Example 108] | ≥ 80 | – | ≥ 80 | – | 4.16 |
